Data taken from patent US20060057696A1, “Sugar chain synthases” (priority 2002, published 2006).
Marks after values point to notes of the source that are not given here.

Assays:
Format in all cases: biochemical
[1] = molecular target: T1, PA-mST6Gal II (mouse ST6Gal II) (Mus musculus, UniProt Q76K27, R48S); assay: Sialyltransferase activity of PA-mST6Gal II toward acceptor substrates; conditions: for Relative rate (%) Mouse ST6Gal II: PA-mST6Gal II, incorporation with Galβ1,4GlcNAc taken as 100, 0.5 mg/ml glycolipids, 1 mg/ml glycoproteins and oligosaccharides
T1 construct: amino acids 31-524 in the case of mouse ST6Gal II; signal peptide of mouse immunoglobulin IgM (N); made in house; host or cells: COS-7 cells, transient expression of pcDSA-mST6Gal II; protein recovered from medium on IgG-Sepharose
T1 sequence (Q76K27 31-524 R48S): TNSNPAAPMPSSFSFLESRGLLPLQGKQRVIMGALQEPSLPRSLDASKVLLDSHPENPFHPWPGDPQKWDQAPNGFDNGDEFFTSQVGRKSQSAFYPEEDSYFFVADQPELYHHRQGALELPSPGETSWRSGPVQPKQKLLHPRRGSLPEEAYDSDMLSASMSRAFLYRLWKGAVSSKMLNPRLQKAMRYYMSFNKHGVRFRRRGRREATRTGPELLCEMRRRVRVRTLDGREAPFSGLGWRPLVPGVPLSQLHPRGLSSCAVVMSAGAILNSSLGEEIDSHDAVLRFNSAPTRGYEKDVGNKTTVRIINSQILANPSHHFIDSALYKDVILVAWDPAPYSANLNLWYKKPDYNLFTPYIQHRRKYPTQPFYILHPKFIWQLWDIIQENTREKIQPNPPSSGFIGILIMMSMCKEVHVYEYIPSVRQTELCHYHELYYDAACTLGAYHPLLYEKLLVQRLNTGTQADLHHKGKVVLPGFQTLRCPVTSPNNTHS
Procedure: (§1) Using each expression vector and lipofectamine (Invitrogen), transient expression was carried out in COS-7 cells (Kojima, N. et al. (1995) FEBS Lett. 360, 1-4). The proteins of the present invention secreted from the cells into which each expression vector had been introduced were named as PA-hST6Gal II (human) and PA-mST6Gal II (mouse). PA-hST6Gal II and PA-mST6Gal II were adsorbed to IgG-Sepharose (Amersham Pharmacia Biotech), and were then recovered from medium. Sialyltransferase activity was measured as follows according to the method of Lee et al. (Lee, Y.-C. et al. (1999) J Biol. Chem. 274, 11958-11967). A reaction mixture (10 μl) containing 50 mM MES buffer (pH 6.0), 1 mM MgCl2, 1 mM CaCl2, 0.5% Triton CF-54, 100 μM CMP-[^14C]-NeuAc, a substrate sugar chain (which was added at 0.5 mg/ml in the case of glycolipids, and at 1 mg/ml in the case of glycoproteins or oligosaccharides), and a PA-hST6Gal II or PA-mST6Gal II suspension, was incubated at 37° C. for 3 to 20 hours. Thereafter, in the case of glycolipids, the reaction product was purified with a C-18 column (Sep-Pak Vac 100 mg; Waters) and the purified product was used as a sample. In the case of oligosaccharides or glycoproteins, the reaction product was directly used as a sample. Thus, the obtained sample was subjected to analysis. In the case of oligosaccharides or glycolipids, the sample was spotted on a silica gel 60 HPTLC plate (Merck), and it was then developed with a developing solvent consisting of 1-propanol:ammonia water:water=6:1:2.5 (for oligosaccharides), or a developing solvent consisting of chloroform:methanol: 0.02% CaCl2=55:45:10 (for glycolipids). In the case of glycoproteins, analysis was carried out by SDS-polyacrylamide gel electrophoresis. The obtained radioactivities were visualized with a BAS2000 radio image analyzer (Fuji Film) and then quantified.

[2] = molecular target: T2, PA-hST6Gal II (human ST6Gal II) (Homo sapiens, UniProt Q96JF0); assay: Sialyltransferase activity of PA-hST6Gal II toward acceptor substrates; conditions: for Relative rate (%) Human ST6Gal II: PA-hST6Gal II, incorporation with Galβ1,4GlcNAc taken as 100, 0.5 mg/ml glycolipids, 1 mg/ml glycoproteins and oligosaccharides
T2 construct: amino acids 33-529 in the case of human ST6Gal II; signal peptide of mouse immunoglobulin IgM (N); made in house; host or cells: COS-7 cells, transient expression of pcDSA-hST6Gal II; protein recovered from medium on IgG-Sepharose
T2 sequence (Q96JF0 33-529): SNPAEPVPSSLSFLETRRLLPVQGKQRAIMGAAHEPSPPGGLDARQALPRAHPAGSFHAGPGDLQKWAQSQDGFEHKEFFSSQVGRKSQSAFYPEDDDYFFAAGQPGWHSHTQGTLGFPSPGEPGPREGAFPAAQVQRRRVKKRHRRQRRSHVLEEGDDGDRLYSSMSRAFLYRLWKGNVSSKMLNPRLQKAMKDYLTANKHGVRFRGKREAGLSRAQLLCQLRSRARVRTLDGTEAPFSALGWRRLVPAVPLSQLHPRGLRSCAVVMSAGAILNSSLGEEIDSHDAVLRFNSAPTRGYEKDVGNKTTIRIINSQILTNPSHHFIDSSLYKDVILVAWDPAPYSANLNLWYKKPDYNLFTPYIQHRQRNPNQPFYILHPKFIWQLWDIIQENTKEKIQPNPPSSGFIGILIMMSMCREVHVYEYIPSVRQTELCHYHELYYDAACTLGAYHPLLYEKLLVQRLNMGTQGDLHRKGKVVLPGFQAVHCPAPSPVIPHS
Procedure: as §1

human ST6Gal I = molecular target: T3, human ST6Gal I (Homo sapiens, UniProt P15907); assay: Sialyltransferase activity of human ST6Gal I toward acceptor substrates (comparison); conditions: for Relative rate (%) Human ST6Gal I: incorporation with Galβ1,4GlcNAc taken as 100, 0.5 mg/ml glycolipids, 1 mg/ml glycoproteins and oligosaccharides
T3 sequence (P15907 1-406): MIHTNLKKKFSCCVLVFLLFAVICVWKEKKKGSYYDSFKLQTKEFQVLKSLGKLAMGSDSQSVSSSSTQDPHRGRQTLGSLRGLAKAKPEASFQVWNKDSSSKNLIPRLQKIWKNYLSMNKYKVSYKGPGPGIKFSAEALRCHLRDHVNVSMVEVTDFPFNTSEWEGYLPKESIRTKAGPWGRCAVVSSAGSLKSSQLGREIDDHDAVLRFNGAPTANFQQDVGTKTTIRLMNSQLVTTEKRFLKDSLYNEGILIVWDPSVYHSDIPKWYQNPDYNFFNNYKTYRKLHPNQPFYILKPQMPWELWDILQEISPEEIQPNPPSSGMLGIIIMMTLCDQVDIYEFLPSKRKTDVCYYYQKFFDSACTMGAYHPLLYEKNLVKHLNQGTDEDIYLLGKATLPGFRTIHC
Procedure: as §1
In contrast, there were no glycolipids, which could be substrates of both the enzymes, as far as the inventors have examined. The activity of human ST6Gal I on oligosaccharides was also examined for comparison. […] (FIG. 10).

Row | Compound | Relative rate (%) Mouse ST6Gal II [1] | Relative rate (%) Human ST6Gal II [2] | Relative rate (%) Human ST6Gal I (human ST6Gal I) | activity of human ST6Gal I on the substrate (in words) (human ST6Gal I) | incorporation obtained with Galβ1,4GlcNAc ([1]; Mouse ST6Gal II, the value set as 100) | incorporation obtained with Galβ1,4GlcNAc ([2]; Human ST6Gal II, the value set as 100) | incorporation obtained with Galβ1,4GlcNAc (human ST6Gal I; Human ST6Gal I, the value set as 100)
1 | CC(=O)N[C@H]1[C@H](O[C@H]2[C@@H](O)[C@@H](CO)O[C@@H](O[C@H]3[C@H](O)[C@@H](O)C(O)O[C@@H]3CO)[C@@H]2O)O[C@H](CO)[C@@H](O[C@@H]2O[C@H](CO)[C@H](O)[C@H](O)[C@H]2O)[C@@H]1O (stereo partly shown) [Lacto-N-neotetraose, Galβ1,4GlcNAcβ1,3Galβ1,4Glc] | 128.8% | 86.2% | 101.6% |  |  |  | 
2 | OC[C@H]1O[C@@H](O[C@H]2[C@H](O)[C@@H](O)C(O)O[C@@H]2CO)[C@H](O)[C@@H](O)[C@H]1O (stereo partly shown) [Lactose, Galβ1,4Glc] | 0% | 0% | 8.7% | showed activity |  |  | 
3 | CC(=O)N[C@H]1C(O)O[C@H](CO)[C@H](O)[C@@H]1O[C@@H]1O[C@H](CO)[C@H](O)[C@H](O)[C@H]1O (stereo partly shown) [Type III, Galβ1,3GalNAc] | 0% | 0% | 0% |  |  |  | 
4 | Galβ1,3GalNAcβ1,4Galβ1,4Glcβ1-Cer [GA1] | 0% | 0% | 0% |  |  |  | 
5 | Galβ1,3GlcNAc [Type I] | 0% | 0% | 4.2% |  |  |  | 
6 | Galβ1,3GlcNAcβ1,3Galβ1,4Glc [Lacto-N-tetraose] | 0% | 0% | 31.1% | showed activity |  |  | 
7 | Galβ1,4GlcNAc [Type II] | 100* % |  | 100*** % |  | *, 2.74 pmol/h/ml medium. | **, 1.03 pmol/h/ml medium. | ***, 8.14 pmol/h/ml medium.
8 | Galβ1,4GlcNAcβ1,3Galβ1,4Glcβ1-Cer [Paragloboside] | 0% | 0% | 0.3% |  |  |  | 
